# Results from US11331284B2 (UNM Rainforest Innovations, priority 2017, dated 2022).
# What was measured:
# [1] = in humans; reference 1; cited from earlier work
# [2] = tested on: TFEB nuclear translocation; assay: ambroxol induction of TFEB nuclear translocation; assay type: cell-based
# [3] = tested on: bone marrow derived macrophages from ATG5 knockouts (autophagy, LC3 puncta); assay: ambroxol dose response assay, LC3 puncta quantified by Cellomics, ATG5 knockout cells; assay type: cell-based
# Source text: The inventors next studied the same assay, described above, but in ATG5 knockout cells.
# [4] = tested on: bone marrow derived macrophages from wild type (autophagy, LC3 puncta); assay: ambroxol dose response assay, LC3 puncta quantified by Cellomics, wild type cells; assay type: cell-based
compound,measurement,setting,value
"Nc1c(Br)cc(Br)cc1CN[C@H]1CC[C@H](O)CC1 [ambroxol, trans-4-[(2-amino-3,5-dibromobenzyl)amino]cyclohexanol]",plasma half-life,[1],3.72 h
same,concentration at which significant increases were observed,[2]; FIGS. 5 and 6,25 µM
same,EC50,"[2]; read-out: concentration giving 50% of maximal autophagy induced by ambroxol (sigmoidal fit), both data sets, FIGS. 5 and 6",~50 µM
same,dose response of autophagy induction,[3]; FIG. 4,clear dose response
same,concentration as low as which gave appreciable increases in autophagy,"[3]; LC3 puncta, t test v. control p=0.0008, FIG. 4",6.25 µM
same,concentration as low as which had a positive effect on autophagy,"[4]; LC3 puncta, pp242 induction = 100%, t test v. control p=0.025, FIG. 3",6.25 µM
same,dose response of autophagy induction,"[4]; ambroxol 0 to 200 uM, FIG. 3",higher ambroxol concentrations result in higher induction of autophagy
